Assay results from patent US20250017853A1, “NANOSUSPENSION CONTAINING PROGERININ, AND PREPARATION METHOD THEREFOR” (PRG S&Tech Inc., priority 2021, published 2025).

Assays:
[1] = Excipient compatibility, binary mixtures 1:10, 40° C./75% RH over 2 weeks; type: physicochemical
Protocol: To assess compatibility with excipients, progerinin was mixed with HPMC E3, TPGS, and potassium sorbate in a ratio of 1:10, and the effectiveness of the drug (API) components was measured under 40° C./75% RH condition over 2 weeks and shown in Table 9 and Table 10.

[2] = BCS criteria; cited from earlier work
[3] = BCS classification, permeability and solubility of progerinin; type: physicochemical
Excerpt: In particular, the above-mentioned progerinin is poorly soluble to the extent that its solubility in water is close to zero, and the solubility is very low even in existing ingestible solvents, such that it is necessary to develop a formulation that enables long-term intake and body absorption through the introduction of new technology.

[4] = Stability of spray-dried solid dispersions under high temperature and high humidity for 2 weeks; type: physicochemical; conditions: for Appearance / HPLC results Purity / XRPD: open
[5] = test system: progeria-induced animal model; conditions: background art; cited from earlier work

CC1(C)Oc2cc3oc(=O)ccc3cc2C[C@@H]1OC/C=C/c1ccccc1 [progerinin, (7S)-(+)-8,8-dimethyl-7-(3-phenylallyloxy)-7,8-dihydro-6H-pyrano [3,2-g]chromen-2-one]
API(% Area) ([1]; 40° C./75% RH, 1 week): 99.94 % Area
RRT = 1.02 ([1]; 40° C./75% RH, 1 week): 0.06
API(% Area) ([1]; 40° C./75% RH, 2 weeks): 99.95 % Area
RRT = 1.02 ([1]; 40° C./75% RH, 2 weeks): 0.05
API(% Area) ([1]; Initial): 99.94 % Area
RRT = 1.02 ([1]; Initial): 0.06
compatibility with excipients HPMC E3, TPGS and potassium sorbate ([1]; text summary of Tables 9 and 10): no effect on the drug
solubility in aqueous media [2]: low solubility in aqueous media
solubility in water [3]: close to zero
Appearance ([4]; 25° C./60% RH): White
HPLC results Purity ([4]; 25° C./60% RH, after 1 week): 99.85%
XRPD ([4]; 25° C./60% RH, after 1 week): Unchanged
HPLC results Purity ([4]; 25° C./60% RH, after 2 weeks): 99.85%
XRPD ([4]; 25° C./60% RH, after 2 weeks): Unchanged
Appearance ([4]; 40° C./75% RH): White
HPLC results Purity ([4]; 40° C./75% RH, after 1 week): 99.85%
XRPD ([4]; 40° C./75% RH, after 1 week): Unchanged
HPLC results Purity ([4]; 40° C./75% RH, after 2 weeks): 99.85%
XRPD ([4]; 40° C./75% RH, after 2 weeks): Unchanged
Initial purity ([4]; Initial): 99.85%
survival period of progeria-induced animal model [5]: prolonging a survival period
